Results on 30 compounds are retold here after patent publication US7507721B2, “Macrolides with antiinflammatory activity” (Zambon Group S.p.A., priority 2004, dated 2009).

The subject of this experiment is PMA-induced oedema in mouse ear. As to the kind of experiment: Acute contact dermatitis: inhibition of PMA/TPA-induced oedema in mouse ear. Type of experiment: in vivo. Conditions: 6 h, CD1 mice, 500 μg/ear topical in TPDS, 30 minutes before TPA 0.01% in acetone, ear weight difference after six hours vs TPA only. Here is the method: The antiinflammatory activity has been evaluated as inhibition of PMA-induced oedema in mouse ear (Phorbol Myristate Acetate).
A) Acute contact dermatitis.
Groups of 5 CD1 mice (18-24 g) were used.
All the macrolide derivatives were dissolved in the Trans-phase Delivery System (TPDS) vehicle containing 10% benzyl alcohol, 40% acetone and 50% isopropanol.
15 microliters of the compounds (500 μg/ear), dissolved in TPDS, were applied topically onto the inner surface of an ear; after 30 minutes 12 microliters of a solution of acetate of tetradecanoyl-phorbol (TPA) with the concentration of 0.01% dissolved in acetone were applied onto the same area.
After six hours the animals were sacrified by inhalation of CO2.
The oedema level was calculated by detracting the weight of a defined portion of auricular ala of the not treated ear to the one of the treated controlateral ear. To determine the oedema remission level the weight difference of the groups treated with TPA+macrolides was compared with the ones of those treated with TPA only. The activity of the macrolides was measured by using the modified method of Zunic et coll. (1998): MDL (Lysyl) GDP, a non-toxil muramyl dipeptide derivative inhibits, cytokine production by activated macrophages and protects mice from phorbol ester-and oxazolone-induced inflammation (J. Invest Dermatol., 111(1), 77-82).
The data relating to erythromycin concern the treatment in single dose with 500 μg/ear.
Compound `CC[C@H]1OC(=O)[C@H](C)[C@@H](O[C@H]2C[C@@](C)(OC)[C@@H](O)[C@H](C)O2)[C@H](C)[C@@H](O[C@@H]2O[C@H](C)C[C@H](N(C)C)[C@H]2O)[C@](C)(O)C[C@@H](C)CN(C)[C@H](C)[C@@H](O)[C@]1(C)O` [Azithromycin, reference compound] displayed an inhibition in vivo at 500 µg/ear of 40%.

As to `CC[C@H]1OC(=O)[C@H](C)[C@@H](O)[C@H](C)[C@@H](O[C@@H]2O[C@H](C)C[C@H](N(C)C(=O)COCc3cc(OC)ccn3)[C@H]2O)C(C)(O)C[C@@H](C)C(O)[C@H](C)[C@@H](O)[C@]1(C)O` (stereo partly drawn) [Compound 1], the inhibition in vivo at 500 µg/ear worked out at 61.5%.

Regarding `CC[C@H]1OC(=O)[C@H](C)[C@@H](O)[C@H](C)[C@@H](O[C@@H]2O[C@H](C)C[C@H](N(C)C(=O)Cc3ccccc3)[C@H]2O)C(C)(O)C[C@@H](C)[C@H](O)[C@H](C)[C@@H](O)[C@]1(C)O` (stereo partly drawn) [Compound 2], the inhibition in vivo at 500 µg/ear worked out at 88.1%.

Compound `CC[C@H]1OC(=O)[C@H](C)[C@@H](O)[C@H](C)[C@@H](O[C@@H]2O[C@H](C)C[C@H](N(C)C(=O)c3ccccc3)[C@H]2O)C(C)(O)C[C@@H](C)[C@H](O)[C@H](C)[C@@H](O)[C@]1(C)O` (stereo partly drawn) [Compound 3] had an inhibition in vivo at 500 µg/ear of 89.9%.

Consider `CC[C@H]1OC(=O)[C@H](C)[C@@H](O)[C@H](C)[C@@H](O[C@@H]2O[C@H](C)C[C@H](N(C)C(=O)c3ccco3)[C@H]2O)C(C)(O)C[C@@H](C)[C@H](O)[C@H](C)[C@@H](O)[C@]1(C)O` (stereo partly drawn) [Compound 4], for which the inhibition in vivo at 500 µg/ear is 64.4%.

For the compound `CC[C@H]1OC(=O)[C@H](C)[C@@H](O)[C@H](C)[C@@H](O[C@@H]2O[C@H](C)C[C@H](N(C)C(=O)Cc3cccs3)[C@H]2O)C(C)(O)C[C@@H](C)[C@H](O)[C@H](C)[C@@H](O)[C@]1(C)O` (stereo partly drawn) [Compound 5], the inhibition in vivo at 500 µg/ear was 53.7%.

Consider `CC[C@H]1OC(=O)[C@H](C)[C@@H](O)[C@H](C)[C@@H](O[C@@H]2O[C@H](C)C[C@H](N(C)C(=O)c3ccc(C)cc3)[C@H]2O)C(C)(O)C[C@@H](C)[C@H](O)[C@H](C)[C@@H](O)[C@]1(C)O` (stereo partly drawn) [Compound 6], for which the inhibition in vivo at 500 µg/ear is 77.8%.

`CC[C@H]1OC(=O)[C@H](C)[C@@H](O)[C@H](C)[C@@H](O[C@@H]2O[C@H](C)C[C@H](N(C)C(=O)c3cccnc3)[C@H]2O)C(C)(O)C[C@@H](C)[C@H](O)[C@H](C)[C@@H](O)[C@]1(C)O` (stereo partly drawn) [Compound 7] gave an inhibition in vivo at 500 µg/ear of 46.1%.

For the compound `CC[C@H]1OC(=O)[C@H](C)[C@@H](O)[C@H](C)[C@@H](O[C@@H]2O[C@H](C)C[C@H](N(C)C(=O)CSc3ccccc3)[C@H]2O)C(C)(O)C[C@@H](C)[C@H](O)[C@H](C)[C@@H](O)[C@]1(C)O` (stereo partly drawn) [Compound 8], the inhibition in vivo at 500 µg/ear was 57.6%.

The compound `CCCCCCCC(=O)N(C)[C@H]1C[C@@H](C)O[C@@H](O[C@@H]2[C@@H](C)[C@H](O)[C@@H](C)C(=O)O[C@H](CC)[C@@](C)(O)[C@H](O)[C@@H](C)[C@@H](O)[C@H](C)CC2(C)O)[C@@H]1O` (stereo partly drawn) [Compound 9] showed an inhibition in vivo at 500 µg/ear of 74.2%.

On to `CC[C@H]1OC(=O)[C@H](C)[C@@H](O)[C@H](C)[C@@H](O[C@@H]2O[C@H](C)C[C@H](N(C)C(=O)C3CCCCC3)[C@H]2O)C(C)(O)C[C@@H](C)[C@H](O)[C@H](C)[C@@H](O)[C@]1(C)O` (stereo partly drawn) [Compound 10], for which the inhibition in vivo at 500 µg/ear worked out at 89.2%.

For the compound `CC[C@H]1OC(=O)[C@H](C)[C@@H](O)[C@H](C)[C@@H](O[C@@H]2O[C@H](C)C[C@H](N(C)S(C)(=O)=O)[C@H]2O)C(C)(O)C[C@@H](C)[C@H](O)[C@H](C)[C@@H](O)[C@]1(C)O` (stereo partly drawn) [Compound 11], the inhibition in vivo at 500 µg/ear stood at 55.3%.

In the case of `CC[C@H]1OC(=O)[C@H](C)[C@@H](O)[C@H](C)[C@@H](O[C@@H]2O[C@H](C)C[C@H](N(C)S(=O)(=O)c3ccc(C)cc3)[C@H]2O)C(C)(O)C[C@@H](C)[C@H](O)[C@H](C)[C@@H](O)[C@]1(C)O` (stereo partly drawn) [Compound 12], the inhibition in vivo at 500 µg/ear was found to be 72.2%.

In turn, `CCNC(=O)N(C)[C@H]1C[C@@H](C)O[C@@H](O[C@@H]2[C@@H](C)[C@H](O)[C@@H](C)C(=O)O[C@H](CC)[C@@](C)(O)[C@H](O)[C@@H](C)[C@@H](O)[C@H](C)CC2(C)O)[C@@H]1O` (stereo partly drawn) [Compound 13] showed an inhibition in vivo at 500 µg/ear of 80.3%.

Regarding `CC[C@H]1OC(=O)[C@H](C)[C@@H](O)[C@H](C)[C@@H](O[C@@H]2O[C@H](C)C[C@H](N(C)C(=O)Nc3ccccc3)[C@H]2O)C(C)(O)C[C@@H](C)[C@H](O)[C@H](C)[C@@H](O)[C@]1(C)O` (stereo partly drawn) [Compound 14], the inhibition in vivo at 500 µg/ear stood at 89.9%.

`CC[C@H]1OC(=O)[C@H](C)[C@@H](O)[C@H](C)[C@@H](O[C@@H]2O[C@H](C)C[C@H](N(C)C(=O)c3ccccc3)[C@H]2O)C(C)(OC)C[C@@H](C)C(=O)[C@H](C)[C@@H](O)[C@]1(C)O` (stereo partly drawn) [Compound 15]: the inhibition in vivo at 500 µg/ear worked out at 74.3%.

In the case of `CC[C@H]1OC(=O)[C@H](C)[C@@H](O)[C@H](C)[C@@H](O[C@@H]2O[C@H](C)C[C@H](N(C)C(=O)c3ccc(F)cc3)[C@H]2O)C(C)(OC)C[C@@H](C)C(=O)[C@H](C)[C@@H](O)[C@]1(C)O` (stereo partly drawn) [Compound 16], the inhibition in vivo at 500 µg/ear came out at 81.1%.

On to `CC[C@H]1OC(=O)[C@H](C)[C@@H](O)[C@H](C)[C@@H](O[C@@H]2O[C@H](C)C[C@H](N(C)C(=O)C(C)(C)C)[C@H]2O)C(C)(O)C[C@@H](C)/C(=N\OC(=O)C(C)(C)C)[C@H](C)[C@@H](O)[C@]1(C)O` (stereo partly drawn) [Compound 17], for which the inhibition in vivo at 500 µg/ear came out at 51.2%.

Compound `CC[C@H]1OC(=O)[C@H](C)[C@@H](O)[C@H](C)[C@@H](O[C@@H]2O[C@H](C)C[C@H](N(C)C(C)=O)[C@H]2O)C(C)(O)C[C@@H](C)/C(=N\OC(C)=O)[C@H](C)[C@@H](O)[C@]1(C)O` (stereo partly drawn) [Compound 18] registered an inhibition in vivo at 500 µg/ear of 49%.

As to `CC[C@H]1OC(=O)[C@H](C)[C@@H](O)[C@H](C)[C@@H](O[C@@H]2O[C@H](C)C[C@H](N(C)C(=O)COC)[C@H]2O)C(C)(O)C[C@@H](C)/C(=N\O)[C@H](C)[C@@H](O)[C@]1(C)O` (stereo partly drawn) [Compound 19], the inhibition in vivo at 500 µg/ear was 86.1%.

As for `CC[C@H]1OC(=O)[C@H](C)[C@@H](O)[C@H](C)[C@@H](O[C@@H]2O[C@H](C)C[C@H](N(C)C(=O)c3ccc(OC)cc3)[C@H]2O)C(C)(O)C[C@@H](C)/C(=N\O)[C@H](C)[C@@H](O)[C@]1(C)O` (stereo partly drawn) [Compound 20], the inhibition in vivo at 500 µg/ear worked out at 83.2%.

With `CC[C@H]1OC(=O)[C@H](C)[C@@H](O)[C@H](C)[C@@H](O[C@@H]2O[C@H](C)C[C@H](N(C)C(=O)c3ccc(OC)cc3)[C@H]2O)C(C)(O)C[C@@H](C)/C(=N\OC(=O)c2ccc(OC)cc2)[C@H](C)[C@@H](O)[C@]1(C)O` (stereo partly drawn) [Compound 21], the inhibition in vivo at 500 µg/ear came out at 53.3%.

On to `CC[C@H]1OC(=O)[C@H](C)[C@@H](O)[C@H](C)[C@@H](O[C@@H]2O[C@H](C)C[C@H](N(C)C(=O)c3cccnc3)[C@H]2O)C(C)(O)C[C@@H](C)/C(=N\O)[C@H](C)[C@@H](O)[C@]1(C)O` (stereo partly drawn) [Compound 22], for which the inhibition in vivo at 500 µg/ear is 74.3%.

`CC[C@H]1OC(=O)[C@H](C)[C@@H](O)[C@H](C)[C@@H](O[C@@H]2O[C@H](C)C[C@H](N(C)C(=O)c3cccs3)[C@H]2O)C(C)(O)C[C@@H](C)/C(=N\O)[C@H](C)[C@@H](O)[C@]1(C)O` (stereo partly drawn) [Compound 23] showed an inhibition in vivo at 500 µg/ear of 86.8%.

On to `CC[C@H]1OC(=O)[C@H](C)[C@@H](O)[C@H](C)[C@@H](O[C@@H]2O[C@H](C)C[C@H](N(C)C(=O)c3cccs3)[C@@H]2O)[C@](C)(O)C[C@H](C)/C(=N\OC(=O)c2cccs2)[C@@H](C)[C@H](O)[C@]1(C)O` [Compound 24], for which the inhibition in vivo at 500 µg/ear turned out to be 41.3%.

`CC[C@H]1OC(=O)[C@H](C)[C@@H](O)[C@H](C)[C@@H](O[C@@H]2O[C@H](C)C[C@H](N(C)C(=O)Cc3cccs3)[C@H]2O)C(C)(O)C[C@@H](C)/C(=N\O)[C@H](C)[C@@H](O)[C@]1(C)O` (stereo partly drawn) [Compound 25]: the inhibition in vivo at 500 µg/ear stood at 79.3%.

For `CC[C@H]1OC(=O)[C@H](C)[C@@H](O)[C@H](C)[C@@H](O[C@@H]2O[C@H](C)C[C@H](N(C)C(=O)C(C)(C)C)[C@H]2O)C(C)(O)C[C@@H](C)/C(=N\O)[C@H](C)[C@@H](O)[C@]1(C)O` (stereo partly drawn) [Compound 26], the inhibition in vivo at 500 µg/ear turned out to be 68.6%.

Consider `CC[C@H]1OC(=O)[C@H](C)[C@@H](O)[C@H](C)[C@@H](O[C@@H]2O[C@H](C)C[C@H](N(C)C(=O)Cc3cccs3)[C@H]2O)C(C)(O)C[C@@H](C)/C(=N\OC(=O)Cc2cccs2)[C@H](C)[C@@H](O)[C@]1(C)O` (stereo partly drawn) [Compound 27], for which the inhibition in vivo at 500 µg/ear was 61.4%.

As to `CC[C@H]1OC(=O)[C@H](C)[C@@H](O)[C@H](C)[C@@H](O[C@@H]2O[C@H](C)C[C@H](N(C)C(=O)c3cccnc3Cl)[C@H]2O)C(C)(O)C[C@@H](C)/C(=N\O)[C@H](C)[C@@H](O)[C@]1(C)O` (stereo partly drawn) [Compound 28], the inhibition in vivo at 500 µg/ear came out at 81.7%.

On to `CC[C@H]1OC(=O)[C@H](C)[C@@H](O[C@H]2C[C@@](C)(OC)[C@@H](O)[C@H](C)O2)[C@H](C)[C@@H](O[C@@H]2O[C@H](C)C[C@H](N(C)C)[C@H]2O)[C@](C)(O)C[C@@H](C)C(=O)[C@H](C)[C@@H](O)[C@]1(C)O` [Erythromycin, reference compound], for which the inhibition in vivo at 500 µg/ear worked out at 42.5%.
